Values quoted from earlier work as cited in US20240382549A1, “USE OF MULBERRY EXTRACT FOR IMPROVING SLEEP QUALITY AND/OR SUBSEQUENT BEHAVIOURAL OUTCOMES” (SOCIETE DES PRODUITS NESTLE S.A., priority 2021, published 2024).

Settings: earlier study; 12.5 mg DNJ in capsule, co-ingestion with maltodextrin

SMILES: OC[C@H]1NC[C@H](O)[C@@H](O)[C@@H]1O [DNJ, 1-deoxynojirimycin]
- reduction of PPGR: 14%
